Source: patent publication US20120027720A1, “PEPTIDE CONJUGATES” (priority 2008, published 2012)
Where no end group is shown, it is not given here. [ ]: non-standard residue; d: D form.

Legend:
Type in all cases: cell-based
[1] = tested on: IEC6 cells; test: Real-Time Cell Electronic Sensing (RT-CES, ACEA) assay of cell morphology change; set-up: key: + indicates an enhancement of the permeability of the tight junctions were observed; − indicates no enhancement of permeability was observed; details: peptide at 5 mg/mL
Excerpt: Agonists of tight junctions can be identified by their ability to induce changes in morphology of cells in a monolayer of cells that comprise tight junctions. Such changes in the morphology of IEC6 cells may be measured using a Real-Time Cell Electronic Sensing protocol as described below.
Tight junction agonists can be identified using the following method an used in peptide conjugates of the invention:
Materials: cells: IEC6 passage 30-50, medium: DMEM 10% no calcium no magnesium, foetal bovine serum 0.1 unit per ml bovine insulin, buffers: phosphate buffered saline (PBS) no calcium no magnesium, trypsin: 0.25% porcine trypsin in HBSS no calcium no magnesium, flasks: 100×20 mm Tissue culture dish Falcon, plates: 16× E-Plate, machine: RT-CES™ 16× system (ACEA Biosciences, Inc., San Diego, Calif.)
Wash a 75 cm^2 flask of confluent IEC6 cells twice with 25 ml of PBS.
Add 2.5 ml of trypsin to the flask and place back in the incubator at 37° C.
Wash cells from the surface of the flask with 10 ml of serum containing media to quench the trypsin.
Pellet the cells by centrifugation at 1500 rpm for 5 minutes aspirate the media.
Resuspend the cell pellet in 10 ml of serum free media and centrifuge at 1500 rpm for 5 minutes aspirate the media and repeat for a total of 5 washes.
Take 100 μl of cells and mix with 100 μl of trypan blue.
Count the cells four times and use the average cell concentration.
Dilute the cells to 1×10^6 per ml in serum free media.
Add 100 μl of serum free media to each well of the ACEA plates to be used.
Insert the ACEA plate and press scan.
Run step 1 of the program to measure background.
Add 50 μl of cells to each well of the ACEA plate tap each slide of the plate 10 times and place the cells on the bench for 15 minutes to allow the cells to settle.
Insert the ACEA plate and run the scan step to check connections and run step 2-1 and 2-2 overnight.
Step 2-1 sample every 2 minutes 30 times.
Step 2-2 sample every 15 minutes 100 times.
The cell indices should be between 6-10 after the overnight run and should have reached a plateau.
Remove 100 μl of media carefully from each well.
Make up the compounds to be tested so that 50 μl contains 2× the desired final concentration.
Add 50 μl of compounds to the designated wells.
Scan the plate to check connections.
Step 3-1 sample every 2 minutes 30 times.
Step 3-2 sample every 15 minutes 100 times.

[2] = tested on: CaCo2 monolayers; test: Epithelial flux of Lucifer Yellow through cell monolayer; set-up: key to Enhanced LY permeability: + indicates an enhancement of the permeability of the tight junctions were observed; − indicates no enhancement of permeability was observed; details: Lucifer Yellow flux, Caco-2 monolayer
Procedure, shortened: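 Caco-2 cells (passage 40-60) grown 21-28 days on Transwell filters, equilibrated 30 min at 37 °C in HBSS-HEPES pH 7.4; Lucifer Yellow with test compound applied apically, n=3 filters. Basolateral samples at 60, 120, 180 min read by fluorescence at 485/535 nm against standard curve; TEER also measured.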

[3] = tested on: CaCo2 monolayers; test: Trans Epithelial Electric Resistance (TEER) across cell monolayer; set-up: key to Reduced TEER: + indicates an enhancement of the permeability of the tight junctions were observed; − indicates no enhancement of permeability was observed; details: Caco-2 monolayer
Procedure, shortened: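 Caco-2 cells, passage 40-60, grown 21-28 days on Transwell filters, equilibrated 30 min at 37° C in MHBSS pH 7.4. Test compound with Lucifer Yellow applied apically (n=3), incubated at 37° C with 50 RPM shaking; TEER measured at baseline and at 30, 60, 120 and 180 min.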

Substance | ACEA 5 mg/mL [1] | Enhanced LY permeability [2] | Reduced TEER [3]
2 (ACIGRL; not fully specified; printed as Ala-Cys-Ile-Gly-Arg-Leu) [compound 2] | + | − | −
3 (FAIGRL; not fully specified; printed as Phe-Ala-Ile-Gly-Arg-Leu) [compound 3] | − | − | −
5 (FCIARL; not fully specified; printed as Phe-Cys-Ile-Ala-Arg-Leu) [compound 5] | − | − | −
6 (FCIGAL; not fully specified; printed as Phe-Cys-Ile-Gly-Ala-Leu) [compound 6] | + | − | −
7 (FCIGRA; not fully specified; printed as Phe-Cys-Ile-Gly-Arg-Ala) [compound 7] | + | + | +
8 (CIGRL; not fully specified; printed as Cys-Ile-Gly-Arg-Leu) [compound 8] | − | − | −
10 (FCIGR; also: peptide conjugate) [compound 10] | + | + | +
11 (FCIG; also: peptide conjugate) [compound 11] | + |  | −
13 (F[dC]IGRL; also: peptide conjugate) [compound 13] | + | + | +
14 (FC[dI]GRL; also: peptide conjugate) [compound 14] | − | + | +
15 (FCIG[dR]L; also: peptide conjugate) [compound 15] | + | − | −
16 (FCIGR[dL]; also: peptide conjugate) [compound 16] | − | − | −
17 ([dL][dR]G[dI][dC][dF]; also: peptide conjugate) [compound 17] | − | + | +
18 ([dL][dR]G[dI][dC]F; not fully specified; printed as D-Leu-D-Arg-Gly-D-Ile-D-Cys-Phe) [compound 18] | + | + | +
19 ([dL][dR]G[dI]C[dF]; not fully specified; printed as D-Leu-D-Arg-Gly-D-Ile-Cys-D-Phe) [compound 19] | + | + | +
22 (L[dR]G[dI][dC][dF]; not fully specified; printed as Leu-D-Arg-Gly-D-Ile-D-Cys-D-Phe) [compound 22] | − | + | +
23 (LRGICF; not fully specified; printed as Leu-Arg-Gly-Ile-Cys-Phe) [compound 23] | − | + | +
24 ([dL]RGICF; not fully specified; printed as D-Leu-Arg-Gly-Ile-Cys-Phe) [compound 24] | + | − | −
25 (L[dR]GICF; not fully specified; printed as Leu-D-Arg-Gly-Ile-Cys-Phe) [compound 25] | + | − | −
29 ([dF][dC][dI]G[dR][dL]; not fully specified; printed as D-Phe-D-Cys-D-Ile-Gly-D-Arg-D-Leu) [compound 29] | − | + | +
32 ([dF][dC]IG[dR][dL]; not fully specified; printed as D-Phe-D-Cys-Ile-Gly-D-Arg-D-Leu) [compound 32] | − | + | +
33 ([dF]C[dI]G[dR][dL]; not fully specified; printed as D-Phe-Cys-D-Ile-Gly-D-Arg-D-Leu) [compound 33] | + | − | −
